{
  "source": "patent US20260256742A1",
  "about": "“ANDROGEN RECEPTOR ANTAGONISTS FOR THE TREATMENT OF PATIENTS WITH BIOCHEMICAL RECURRENCE OF HORMONE SENSITIVE PROSTATE CANCER” (BAYER CONSUMER CARE AG, priority 2023, published 2026)",
  "key": {"[1]": {"experiment": "transgenic mouse carcinogenicity study", "format": "in vivo, 001178-T (hemizygous) RasH 2 mice", "details": "male and female RasH 2 mice, up to 500 mg/kg/dose BID, at least 26 weeks"}, "[2]": {"details": "rat, in vivo"}, "[3]": {"details": "dog, in vivo"}, "[4]": {"details": "rats; cited from earlier work"}, "Cytochrome P450 (CYP)3A4": {"target": "Cytochrome P450 (CYP)3A4 (Homo sapiens, UniProt P08684)", "sequence (P08684 whole entry)": "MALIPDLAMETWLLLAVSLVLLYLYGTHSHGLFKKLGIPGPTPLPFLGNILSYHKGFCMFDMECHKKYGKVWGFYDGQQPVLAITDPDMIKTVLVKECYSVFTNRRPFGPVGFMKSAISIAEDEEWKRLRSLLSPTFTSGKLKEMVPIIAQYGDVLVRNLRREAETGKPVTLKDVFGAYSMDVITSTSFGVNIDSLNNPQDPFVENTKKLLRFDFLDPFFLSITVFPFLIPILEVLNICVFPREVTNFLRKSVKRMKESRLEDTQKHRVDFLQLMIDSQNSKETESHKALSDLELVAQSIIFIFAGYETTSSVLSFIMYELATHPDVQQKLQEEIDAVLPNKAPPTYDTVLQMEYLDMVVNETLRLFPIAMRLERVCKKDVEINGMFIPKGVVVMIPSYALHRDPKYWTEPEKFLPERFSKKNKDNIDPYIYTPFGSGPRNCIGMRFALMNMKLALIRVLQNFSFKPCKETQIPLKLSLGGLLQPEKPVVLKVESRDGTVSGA", "details": "in vitro; cited from earlier work"}, "nine CYP isoforms": {"tested_on": "nine CYP isoforms", "details": "in vitro; cited from earlier work"}, "CYP1A2": {"tested_on": "CYP1A2", "details": "in vitro; cited from earlier work"}, "BCRP": {"target": "T1, BCRP (Homo sapiens, UniProt Q9UNQ0)", "T1 sequence (Q9UNQ0 1-655)": "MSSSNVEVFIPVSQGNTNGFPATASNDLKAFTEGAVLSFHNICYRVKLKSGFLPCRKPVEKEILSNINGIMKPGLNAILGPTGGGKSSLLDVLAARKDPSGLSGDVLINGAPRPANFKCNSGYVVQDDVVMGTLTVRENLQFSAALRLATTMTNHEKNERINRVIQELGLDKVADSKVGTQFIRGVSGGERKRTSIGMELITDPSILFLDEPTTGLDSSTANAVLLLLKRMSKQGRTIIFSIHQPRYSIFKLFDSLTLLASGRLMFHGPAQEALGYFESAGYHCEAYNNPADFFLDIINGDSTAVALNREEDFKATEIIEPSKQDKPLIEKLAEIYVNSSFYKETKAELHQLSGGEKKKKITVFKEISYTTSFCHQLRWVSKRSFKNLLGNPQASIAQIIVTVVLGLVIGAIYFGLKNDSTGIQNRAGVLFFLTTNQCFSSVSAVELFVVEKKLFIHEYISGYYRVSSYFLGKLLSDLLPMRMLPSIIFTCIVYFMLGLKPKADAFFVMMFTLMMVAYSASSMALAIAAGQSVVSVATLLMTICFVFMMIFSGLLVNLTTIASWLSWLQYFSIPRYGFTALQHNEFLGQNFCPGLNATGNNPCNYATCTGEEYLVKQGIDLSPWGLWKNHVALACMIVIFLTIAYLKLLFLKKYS", "details": "in vitro; cited from earlier work"}, "P-gp": {"target": "P-gp (Homo sapiens, UniProt P08183)", "sequence (P08183 whole entry)": "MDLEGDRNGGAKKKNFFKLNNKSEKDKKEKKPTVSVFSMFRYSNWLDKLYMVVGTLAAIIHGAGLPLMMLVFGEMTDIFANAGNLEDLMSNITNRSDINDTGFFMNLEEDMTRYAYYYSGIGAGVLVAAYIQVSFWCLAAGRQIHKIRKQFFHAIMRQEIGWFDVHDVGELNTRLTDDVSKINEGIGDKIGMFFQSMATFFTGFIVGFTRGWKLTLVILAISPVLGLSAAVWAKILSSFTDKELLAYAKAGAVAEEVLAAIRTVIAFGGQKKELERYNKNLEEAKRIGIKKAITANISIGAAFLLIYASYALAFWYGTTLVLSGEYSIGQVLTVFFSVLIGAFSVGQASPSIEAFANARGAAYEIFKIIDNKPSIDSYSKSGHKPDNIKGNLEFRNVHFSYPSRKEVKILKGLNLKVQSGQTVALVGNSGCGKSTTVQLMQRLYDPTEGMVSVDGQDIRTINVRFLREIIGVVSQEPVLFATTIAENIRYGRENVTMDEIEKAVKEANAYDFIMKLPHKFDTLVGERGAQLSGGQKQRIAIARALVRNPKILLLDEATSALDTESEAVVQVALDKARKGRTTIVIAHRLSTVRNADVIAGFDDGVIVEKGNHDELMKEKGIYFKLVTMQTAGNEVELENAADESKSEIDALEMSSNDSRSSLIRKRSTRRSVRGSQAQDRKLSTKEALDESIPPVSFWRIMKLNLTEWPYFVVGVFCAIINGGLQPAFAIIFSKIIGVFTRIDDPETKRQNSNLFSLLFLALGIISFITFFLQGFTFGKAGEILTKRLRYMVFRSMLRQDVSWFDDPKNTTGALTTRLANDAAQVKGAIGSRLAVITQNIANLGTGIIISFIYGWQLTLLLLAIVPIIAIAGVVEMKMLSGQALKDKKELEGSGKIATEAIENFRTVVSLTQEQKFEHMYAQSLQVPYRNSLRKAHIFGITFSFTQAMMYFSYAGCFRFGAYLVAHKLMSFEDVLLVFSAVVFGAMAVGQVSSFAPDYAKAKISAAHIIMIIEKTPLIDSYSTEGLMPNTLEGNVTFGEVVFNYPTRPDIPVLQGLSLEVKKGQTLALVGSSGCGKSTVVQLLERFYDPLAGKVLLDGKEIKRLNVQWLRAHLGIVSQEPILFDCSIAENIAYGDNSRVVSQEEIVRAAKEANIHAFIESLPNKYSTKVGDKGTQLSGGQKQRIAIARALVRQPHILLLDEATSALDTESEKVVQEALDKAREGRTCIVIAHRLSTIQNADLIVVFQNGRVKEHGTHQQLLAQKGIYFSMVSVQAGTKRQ", "details": "in vitro; cited from earlier work"}, "[5]": {"target": "T2, multidrug and toxin extrusion (MATE)1 (Homo sapiens, UniProt Q96FL8)", "T2 sequence (Q96FL8 1-570)": "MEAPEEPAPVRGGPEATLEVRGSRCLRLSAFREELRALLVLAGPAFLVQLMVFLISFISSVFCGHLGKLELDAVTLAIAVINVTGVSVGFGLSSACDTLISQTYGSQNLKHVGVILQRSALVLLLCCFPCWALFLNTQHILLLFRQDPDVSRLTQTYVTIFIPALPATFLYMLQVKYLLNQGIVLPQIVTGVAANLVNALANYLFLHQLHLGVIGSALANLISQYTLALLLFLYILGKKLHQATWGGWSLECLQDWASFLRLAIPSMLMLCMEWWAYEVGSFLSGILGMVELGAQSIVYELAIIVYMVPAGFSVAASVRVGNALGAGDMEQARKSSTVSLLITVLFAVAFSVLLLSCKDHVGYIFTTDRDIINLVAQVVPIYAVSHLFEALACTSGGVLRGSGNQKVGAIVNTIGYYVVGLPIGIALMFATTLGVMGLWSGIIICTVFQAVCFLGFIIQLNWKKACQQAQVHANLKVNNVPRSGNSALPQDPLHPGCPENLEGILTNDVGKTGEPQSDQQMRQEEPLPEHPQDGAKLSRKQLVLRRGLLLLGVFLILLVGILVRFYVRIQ", "details": "in vitro; cited from earlier work"}, "MATE2-K": {"target": "MATE2-K (Homo sapiens, UniProt Q86VL8)", "sequence (Q86VL8 1-566 isoform Q86VL8-3)": "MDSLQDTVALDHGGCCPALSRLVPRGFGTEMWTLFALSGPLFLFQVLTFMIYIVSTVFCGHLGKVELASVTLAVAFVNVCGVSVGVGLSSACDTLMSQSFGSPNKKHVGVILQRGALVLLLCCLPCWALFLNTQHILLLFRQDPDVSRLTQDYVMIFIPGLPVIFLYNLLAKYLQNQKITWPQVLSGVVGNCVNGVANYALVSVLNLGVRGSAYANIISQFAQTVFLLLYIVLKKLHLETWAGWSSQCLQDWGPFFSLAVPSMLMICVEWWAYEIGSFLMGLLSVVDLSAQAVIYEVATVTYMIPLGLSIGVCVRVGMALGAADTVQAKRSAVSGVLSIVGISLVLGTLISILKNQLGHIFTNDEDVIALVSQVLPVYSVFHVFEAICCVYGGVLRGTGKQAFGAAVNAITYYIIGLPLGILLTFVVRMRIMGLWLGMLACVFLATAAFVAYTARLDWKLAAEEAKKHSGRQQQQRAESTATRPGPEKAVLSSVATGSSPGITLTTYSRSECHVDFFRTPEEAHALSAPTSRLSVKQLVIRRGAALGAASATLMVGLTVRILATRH", "details": "in vitro; cited from earlier work"}, "OATP1B3": {"target": "T3, OATP1B3 (Homo sapiens, UniProt Q9NPD5)", "T3 sequence (Q9NPD5 1-702)": "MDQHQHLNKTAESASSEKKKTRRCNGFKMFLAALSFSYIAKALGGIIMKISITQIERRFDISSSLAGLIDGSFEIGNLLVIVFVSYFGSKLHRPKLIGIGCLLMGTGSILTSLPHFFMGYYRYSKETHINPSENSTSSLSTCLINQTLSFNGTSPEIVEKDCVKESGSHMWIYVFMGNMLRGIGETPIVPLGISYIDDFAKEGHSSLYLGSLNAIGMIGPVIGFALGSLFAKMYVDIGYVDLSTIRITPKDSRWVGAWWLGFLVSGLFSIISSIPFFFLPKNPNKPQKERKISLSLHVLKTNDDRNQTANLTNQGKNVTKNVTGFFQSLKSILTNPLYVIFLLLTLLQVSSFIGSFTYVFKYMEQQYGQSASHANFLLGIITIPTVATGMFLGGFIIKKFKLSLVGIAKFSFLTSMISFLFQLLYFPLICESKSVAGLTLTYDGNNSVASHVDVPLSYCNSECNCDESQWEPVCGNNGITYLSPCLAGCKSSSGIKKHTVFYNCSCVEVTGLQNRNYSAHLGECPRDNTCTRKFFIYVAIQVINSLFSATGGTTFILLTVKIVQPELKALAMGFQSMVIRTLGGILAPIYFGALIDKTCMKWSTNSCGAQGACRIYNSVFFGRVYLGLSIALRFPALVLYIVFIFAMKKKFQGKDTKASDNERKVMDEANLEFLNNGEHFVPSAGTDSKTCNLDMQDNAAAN", "details": "in vitro; cited from earlier work"}},
  "note": "Read-outs that look alike come from different tables or passages of the source.",
  "data": [
    {"smiles": "CC(O)c1cc(C(=O)N[C@@H](C)Cn2ccc(-c3ccc(C#N)c(Cl)c3)n2)[nH]n1", "note": "(stereo partly shown) [Darolutamide]", "values": [
      {"measurement": "carcinogenic potential", "setting": "[1]", "value": "no carcinogenic potential"},
      {"measurement": "additional changes to reproductive tissues", "setting": "[2]", "value": "minimal increase in vacuolation of the pituitary gland, atrophy and secretory reduction in seminal vesicles and mammary glands"},
      {"measurement": "deaths during the treatment period", "setting": "[2]", "value": "No deaths occurred"},
      {"measurement": "other adverse effects", "setting": "[2]", "value": "No other adverse effects were observed"},
      {"measurement": "reversibility of changes in the male reproductive organs", "setting": "[2]", "value": "reversed or partially resolved"},
      {"measurement": "additional changes to reproductive tissues", "setting": "[3]", "value": "testicular hypospermia, seminiferous tubule dilatation and degeneration"},
      {"measurement": "deaths during the treatment period", "setting": "[3]", "value": "No deaths occurred"},
      {"measurement": "other adverse effects", "setting": "[3]", "value": "No other adverse effects were observed"},
      {"measurement": "reversibility of changes in the male reproductive organs", "setting": "[3]", "value": "reversed or partially resolved"},
      {"measurement": "absorption", "setting": "[4]", "value": "complete and rapid absorption"},
      {"measurement": "bioavailability", "setting": "[4]", "value": "high bioavailability"},
      {"measurement": "main metabolic pathway", "setting": "Cytochrome P450 (CYP)3A4", "value": "mainly metabolized via oxidative biotransformation catalyzed by Cytochrome P450 (CYP)3A4"},
      {"measurement": "inhibition of enzymatic activity of nine CYP isoforms", "setting": "nine CYP isoforms", "value": "not inhibited or slightly inhibited"},
      {"measurement": "induction of CYP1A2 activity", "setting": "CYP1A2", "value": "no relevant induction"},
      {"measurement": "inhibition of BCRP-mediated transport", "setting": "BCRP", "value": "observed"},
      {"measurement": "inhibition of P-gp-mediated transport", "setting": "P-gp", "value": "observed"},
      {"measurement": "inhibition of MATE1-mediated transport", "setting": "[5]", "value": "observed"},
      {"measurement": "inhibition of MATE2-K-mediated transport", "setting": "MATE2-K", "value": "observed"},
      {"measurement": "inhibition of OATP1B3-mediated transport", "setting": "OATP1B3", "value": "observed"}
    ]}
  ]
}
